Reference: article PMC7069920, “Schizandrin A exhibits potent anticancer activity in colorectal cancer cells by inhibiting heat shock factor 1” (Bioscience Reports, 2020)
pIC50, pKd: −log10 of the molar value. Each block holds one molecule with its values, some of them ahead of it.

How the values were obtained:
[1] = system: HSF1; settings: read-out: IC50, heat shock-induced HSF1 reporter activity; cited from earlier work
[2] = system: RKO cells; experiment: MTS cell viability assay, RKO; type: cell-based; settings: Homo sapiens, 72 h, read-out: IC50, antiproliferative effect
Procedure: (§1) The Cell Titer 96 Aqueous Non-Radioactive Cell Proliferation Assay Kit (Promega, U.S.A.) was utilized to measure cell viability. RKO, DLD-1 cells (5 × 10^3 cells/well) and SW620, SW480 (6 × 10^3 cells/well) were seeded in 96-well plates overnight. This was followed by the removal of the culture medium and the exposure of all cells to different concentrations of chemical treatment for 72 h. The absorbance value of each well was determined by a microplate reader at 490 nm. Each experiment was repeated for three times.

[3] = system: p-Rb (S807/811), Cyclin D1, Cdk4, Cdk6; experiment: Western blot of cell cycle-related proteins; type: cell-based, human; settings: RKO, 50-150 μM, 24 h
Procedure: (§2) After 24 h of treatment as indicated, the cells were washed once with PBS. The total proteins were extracted with RIPA buffer supplemented with protease inhibitors (Roche, U.S.A.) and quantified with BSA standard methodology. Equal amounts of proteins were separated by SDS/PAGE and transferred to a PVDF membrane. After blocking with 5% non-fat dry milk in TBST for 1.5 h, the membrane was incubated with a specific primary antibody diluted 1:1000 overnight at 4°C, and the secondary antibody was then conjugated with HRP (1:5000, Santa Cruz, CA) at room temperature for 2 h. The immunoreactive bands were visualized with enhanced chemiluminescence liquid (Millipore, Billerica, MA, U.S.A.) in Amersham Imager 600 system (GE Healthcare Life Sciences, Shanghai, China).

[4] = statement in discussion, no experiment and reference not given; cited from earlier work
[5] = system: SW480 cells; experiment: MTS cell viability assay, SW480; type: cell-based; settings: Homo sapiens, 72 h, read-out: IC50 (50% inhibition), antiproliferative effect
Procedure: as §1

[6] = system: Cleaved-PARP, Cleaved-caspase-3, Bcl-2; experiment: Western blot of apoptosis-related proteins; type: cell-based, human; settings: RKO, 50-150 μM, 24 h
Procedure: Flow cytometer analysis and Western blotting were used to detect cell apoptosis. For flow cytometer analysis of apoptosis, cells were treated […] for 24 h, washed twice with PBS, and re-suspended in 100 μl of 1 × binding buffer. Five microliters of FITC Annexin V and propidium iodide (PI) (556547, BD Biosciences, U.S.A.) were added to the cell suspension and then incubated at room temperature for 15 min. After dilution with 400 μl binding buffer, the samples were analyzed using an ACS Calibur flow cytometer (BD). For apoptosis using Western blotting, cleaved caspase 3, cleavage of PARP, Bcl-2, and BCl-xL were analyzed.
as §2

[7] = target: T1, human recombinant HSF1 full-length protein (Homo sapiens, UniProt Q00613); experiment: SPR direct binding to HSF1
T1 sequence (Q00613 1-529): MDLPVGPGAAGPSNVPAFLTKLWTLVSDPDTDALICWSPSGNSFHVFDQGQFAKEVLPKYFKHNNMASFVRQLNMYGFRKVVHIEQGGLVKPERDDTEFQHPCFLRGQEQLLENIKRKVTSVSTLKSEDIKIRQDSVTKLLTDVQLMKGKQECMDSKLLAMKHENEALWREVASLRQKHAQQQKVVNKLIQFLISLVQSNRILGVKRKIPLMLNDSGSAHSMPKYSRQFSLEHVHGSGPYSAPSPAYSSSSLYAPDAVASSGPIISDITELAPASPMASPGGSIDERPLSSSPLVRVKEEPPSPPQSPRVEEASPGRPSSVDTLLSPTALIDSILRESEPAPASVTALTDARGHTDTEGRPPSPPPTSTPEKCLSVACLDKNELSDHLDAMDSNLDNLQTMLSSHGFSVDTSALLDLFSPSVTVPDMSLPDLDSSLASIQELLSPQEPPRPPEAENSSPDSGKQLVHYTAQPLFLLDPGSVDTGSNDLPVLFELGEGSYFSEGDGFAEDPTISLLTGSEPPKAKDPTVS
Procedure: SPR experiments were performed on a ProteOn XPR36 Protein Interaction Array system (Bio-Rad Laboratories, Hercules, CA, U.S.A.). Briefly, HSF1 solution in PBST (5 mM, pH 7.4) at a concentration of 1 mg/ml was diluted to 30 μg/ml with sodium acetate buffer (pH 4.5). The chip was activated with EDC/NHS (10 μl/min for 600 s). Then, HSF1 was loaded (5 μl/min for 400 s) and immobilized covalently. Approximately 7000 RU of HSF1 was immobilized on the chip. Any excess of unbound HSF1 was removed by flowing PBS solution (5 mM, pH 7.4, with 5%, w/v, DMSO). […] Five concentrations were injected simultaneously at a flow rate of 30 μM/min for 120 s of association phase, followed with 120 s of dissociation phase at 25°C. The final graph was obtained by subtracting blank sensorgrams from the duplex or quadruplex sensorgrams. Data were analyzed using the ProteOn manager software.

[8] = system: HSF1; experiment: HSE luciferase reporter assay (heat shock-induced HSF1 reporter activity); type: cell-based; settings: Homo sapiens, RKO cells, 30 min pretreatment, 43°C 1 h, 5 h recovery
Procedure: The double-strand DNA containing four copies of the palindromic HSE (5′-[…]-3′) was synthesized and inserted into the multiple cloning site (MCS) of pGL3-basic vector (Promega, U.S.A.), which was named as p(HSE)4-basic vector. Then, the Dual-Glo® Luciferase Assay System (Promega, U.S.A.) was used to measure the activity of the reporter. Briefly, RKO cells (3 × 10^5 cells/well) were seeded in six-well plates. After being cultured overnight, cells were co-transfected with 2 μg of p(HSE)4-basic vector and 0.2 μg of pRL-TK using X-treme GENE HP DNA Transfection Reagent (Roche, U.S.A.) according to the manufacturer’s protocol. The Renilla luciferase gene was transfected as an internal control vector. Twenty-four hours after transfection, cells were trypsinized and seeded in 12-well plates at a density of 8 × 10^4 cells per well. The next day, cells were incubated with Sch A at different concentrations for 30 min, exposed to heat shock at 43°C for 60 min, and then incubated further at 37°C for 5 h. Firefly and Renilla luciferase activities were measured using a dual-light reporter gene assay kit (Promega) with a Synergy 2 BioTek plate reader (BioTek, U.S.A.).

[9] = system: HSP70, HSP27 and HSP90 mRNA; experiment: qRT-PCR of HSF1 target genes after heat shock; type: cell-based, human; settings: RKO, 50-150 μM, heat shock 43°C 1 h, recovery 37°C 0.5 h
Procedure: Total RNA was extracted with TRIzol reagent (Invitrogen) following the manufacturer’s protocol. RNA concentrations were quantified by NanoDrop 2000 (Nanodrop, U.S.A.). Two micrograms RNA was reverse transcribed with High-Capacity cDNA Reverse Transcription Kit (Applied Biosystems, U.S.A.). Quantitative real-time PCR was performed to determine the mRNA expression level using SYBR Green Master Mix Kit and Light Cycler 480 II system (Roche, Shanghai, China).
Relative quantities of HSP70, HSP90 and HSP27 mRNA were normalized against ACTB mRNA.

[10] = system: CCD 841 CoN cells; experiment: MTS cell viability assay, normal colon epithelial cells; type: cell-based, human; settings: 72 h
[11] = system: RKO and SW620 cells; experiment: Clonogenic (colony-forming) assay; type: cell-based, human; settings: 75 and 150 μM for 24 h, colonies stained on 14th day, vs negative control
Procedure: RKO cells were seeded at a density of 800 cells per well in six-well cell culture plate overnight. Then Sch A was mixed into the culture medium and added at different concentrations. After 24 h, the culture medium was replaced with fresh culture medium, and was allowed to grow for an additional 14 ays. Following this, the medium was removed from the colonies, which were then washed twice with PBS, fixed with methanol for 15 min, stained with Crystal Violet for 15 min, and finally washed with running water for 5 min. Colonies containing more than 50 cells were counted, and then photographed for visualization.
Furthermore, colony-forming assays were performed to assess the long-term inhibitory effects of Sch A treatment. After 24 h of treatment with Sch A (75 and 150 μM), the cell culture was replaced with fresh medium every 3 days. On the 14th day, cell colonies were stained with 0.1% Crystal Violet and photographed.

[12] = system: DLD-1 cells; experiment: MTS cell viability assay, DLD-1; type: cell-based; settings: Homo sapiens, 72 h, read-out: IC50, antiproliferative effect
Procedure: as §1

[13] = system: Hsp70 and Hsp27; experiment: Western blot of HSF1 downstream proteins; type: cell-based, human; settings: RKO, 50-150 μM, heat shock or 24 h at normal temperature
Procedure: as §2

[14] = system: SW620 cells; experiment: MTS cell viability assay, SW620; type: cell-based; settings: Homo sapiens, SW-620, 72 h, read-out: IC50 (50% inhibition), antiproliferative effect
Procedure: as §1

[15] = system: RKO cells; experiment: Cell cycle analysis by flow cytometry (PI); type: cell-based, human
Procedure: Cells (3 × 10^5 cells/well) were seeded in six-well plates and allowed to adhere overnight. The next day, the cells were treated with different compounds as indicated for 24 h. The cells were then trypsinized, washed, and fixed in 75% ice-cold ethanol at 4°C overnight. After centrifugation, the pellets were washed with cold PBS, suspended in 500 μl PBS with […] PI and incubated in the dark at 4°C for 30 min. Then cell suspension was tested using an FACS Calibur instrument (Becton Dickinson FACSCalibor, BD Biosciences, Franklin Lakes, NJ, U.S.A.).

Structure (SMILES): CNc1ccc([N+](=O)[O-])c(Nc2ccc3[nH]ncc3c2)n1 [KRIBB11]
pIC50 [1]: 5.92

pIC50 [5]: 4.06 | pKd [7]: 3.97 | kon ([7]; pH 7.4, read-out: Ka (association constant, SPR)): 26900 M⁻¹ s⁻¹ | pIC50 [12]: < 3.82 | pIC50 [14]: 4.07
Structure (SMILES): COc1cc2c(c(OC)c1OC)-c1c(cc(OC)c(OC)c1OC)C[C@H](C)[C@H](C)C2 [Sch A, Schizandrin A]
pIC50 [2]: 4.16 | expression of cell cycle-related proteins (p-Rb, Cyclin D1, Cdk4, Cdk6) [3]: reducing the expression of cell cycle-related proteins | water solubility [4]: low water solubility | expression of anti-apoptotic protein Bcl-2 [6]: decreased | expression of pro-apoptotic molecules (Cleaved-PARP and Cleaved-caspase-3) [6]: significantly elevated | inhibition at 100 µM [8]: ~50% | transcription of HSF1 target genes (HSP70, HSP27, HSP90 mRNA) [9]: effectively blocked the transcription of HSF1 target genes | effect on cell viability ([10]; CCD 841 CoN cells, up to 150 μM): little effect on the cell viability | pIC50 ([10]; Homo sapiens, CCD 841 CoN normal colon epithelial cells, MTS, read-out: IC50, antiproliferative effect): < 3.82 | effect on clone formation [11]: stronger inhibitory effect on cancer cell growth in a dose-dependent manner | HSF1-regulated downstream signaling induced by heat shock and basal expression of Hsp 70 and Hsp 27 [13]: effectively down-regulated | Dip G2 ([15]; 50 μM, 24 h (DMSO 15.92 %)): 14.49% | Dip S ([15]; 50 μM, 24 h (DMSO 38.03 %)): 30.80% | Dip G1 ([15]; 50 μM, 24 h (DMSO 46.05 %)): 54.71% | Dip G1 ([15]; 75 μM, 24 h): 62.16% | Dip G2 ([15]; 75 μM, 24 h): 10.56% | Dip S ([15]; 75 μM, 24 h): 27.28% | Dip G1 ([15]; 100 μM, 24 h): 72.26% | Dip G2 ([15]; 100 μM, 24 h): 7.82% | Dip S ([15]; 100 μM, 24 h): 19.93% | Dip G1 ([15]; 150 μM, 24 h): 82.94% | Dip G2 ([15]; 150 μM, 24 h): 8.53% | Dip S ([15]; 150 μM, 24 h): 8.53%
